# Bridge positions count the residues as written; N and C are the ends. Square brackets hold non-standard residues; d marks the D form. Ends that are not written are not given here. Abu = CC[C@H](N)C(=O)O
# System: not given
# Test: not given
# Conditions: not given
row,Substance,"chemotactic activity, % of wild type AvBD-12"
1,GPRSANHKRGLARVGNANPGKYLAKYSFRPVILSSKPLSPTPTKT [AvBD-12A3],> 50%

# System: CCR2 transfected CHO-K1 cells
# Test: Chemotaxis assay, 48-well microchemotaxis chamber
# Format: cell-based, avian
# Conditions: Fig. 9; n = 5
row,Substance,chemotactic activity for CCR2-CHO-K1 cells (in words)
1,"GPDSC^1NHDRGLC^2RVGNC^3NPGEYLAKYC^4FEPVILC^5C^6VRNRWA (bicyclic or more) [AvBD-12/6, group 3 hybrid peptide: backbone of AvBD-12 with amino acid residues of AvBD-6]",retained the chemotactic function
2,GPDS[Abu]NHDRGL[Abu]RVGNCNPGEYLAKY[Abu]FEPVIL[Abu]CKPLSPTPTKT (disulfide 17-35) [AvBD-12A5],lost their chemotactic activity
3,GPDS[Abu]NHDRGL[Abu]RVGN[Abu]NPGEYLAKY[Abu]FEPVIL[Abu][Abu]KPLSPTPTKT [AvBD-12A6],lost their chemotactic activity
4,GPHSANHVRGLARVGNANPGLYLAKYAFIPVILAAKPLSPTPTKT [AvBD-12A1],minimal chemotactic activity
5,GPRSANHKRGLARVGNANPGKYLAKYSFRPVILSSKPLSPTPTKT [AvBD-12A3],minimal chemotactic activity
